Results as given in patent publication US20220214363A1, “NOVEL LIGAND ASSAYS” (InsituGen Limited, priority 2019, published 2022).

Target: T1, AR (Homo sapiens, UniProt P10275)
T1 sequence (P10275 1-920): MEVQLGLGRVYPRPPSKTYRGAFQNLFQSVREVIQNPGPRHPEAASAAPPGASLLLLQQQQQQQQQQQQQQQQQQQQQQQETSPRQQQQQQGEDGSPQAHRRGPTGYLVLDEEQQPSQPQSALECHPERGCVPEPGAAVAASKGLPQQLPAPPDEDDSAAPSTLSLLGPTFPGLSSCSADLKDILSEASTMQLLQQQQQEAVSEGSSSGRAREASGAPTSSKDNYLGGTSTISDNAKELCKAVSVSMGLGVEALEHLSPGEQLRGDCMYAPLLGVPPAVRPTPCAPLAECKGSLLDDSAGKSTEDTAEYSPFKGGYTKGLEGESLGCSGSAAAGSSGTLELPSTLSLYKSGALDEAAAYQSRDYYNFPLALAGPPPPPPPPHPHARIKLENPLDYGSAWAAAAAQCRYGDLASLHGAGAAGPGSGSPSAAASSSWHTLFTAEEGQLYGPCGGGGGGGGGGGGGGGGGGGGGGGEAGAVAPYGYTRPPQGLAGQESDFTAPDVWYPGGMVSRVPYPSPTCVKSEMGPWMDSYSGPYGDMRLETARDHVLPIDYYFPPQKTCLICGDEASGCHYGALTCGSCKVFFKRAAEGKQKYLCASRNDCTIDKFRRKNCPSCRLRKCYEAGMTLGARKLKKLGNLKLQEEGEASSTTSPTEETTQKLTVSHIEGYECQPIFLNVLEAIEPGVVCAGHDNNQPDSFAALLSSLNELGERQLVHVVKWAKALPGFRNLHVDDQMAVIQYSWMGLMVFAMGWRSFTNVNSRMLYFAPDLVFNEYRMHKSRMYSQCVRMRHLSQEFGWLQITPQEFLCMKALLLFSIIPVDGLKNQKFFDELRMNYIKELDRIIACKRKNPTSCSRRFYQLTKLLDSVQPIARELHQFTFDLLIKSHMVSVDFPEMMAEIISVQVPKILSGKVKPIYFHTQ
Settings: gelding urine sample spiked with trenbolone before deconjugation and extraction; vs ethanol control set at 100%
Excerpt: Spiked trenbolone represents a gelding urine sample that had been spiked with trenbolone before the deconjugation and extraction steps. T7 activity measured for the ethanol control was arbitrarily set at 100%.
Racehorse urine samples were collected on race day and steroids deconjugated and extracted using routine processes. The extracted steroids were resuspended in ethanol and subjected to the assay.

C[C@]12C=CC3=C4CCC(=O)C=C4CCC3C1CC[C@@H]2O (stereo partly shown) [trenbolone]
suppression of T7-generated Mango II: suppression of T7-generated Mango II
